# Patent publication US12633373B2, “Systems and methods to predict structures and properties of biomolecule-ligand complexes and uses thereof” (The Board of Trustees of the Leland Stanford Junior …, priority 2020, dated 2026)
# Key:
# [1] = target: D2 dopamine receptor (D2R) S193 mutants (Val, Leu, Ala) (Homo sapiens, UniProt P14416, S193A); experiment: Mutagenesis of Ser193 (S193) of D2R, ligand affinity; assay type: binding; conditions: S193 mutated to a smaller residue (Ala)
# Source text: (§1) To test the embodiment's predictions, mutagenesis experiments were designed.
# [2] = tested on: D2 dopamine receptor (D2R) S193 mutants (Val, Leu, Ala); experiment: as above; assay type: binding; conditions: S193 mutated to a larger residue (Val or Leu)
# Source text: as §1
# [3] = tested on: D2 dopamine receptor (D2R) Val91 and Trp100 mutants; experiment: Mutagenesis of Val91 and Trp100 of D2R, ligand affinity; conditions: mutation of Val91 and Trp100, top of the ligand binding pocket
# Source text: Mutations to several residues surrounding the top and bottom of the binding pocket were also considered. Unlike Glide, the embodiment predicts that all four ligands will position a fluorobenzene ring at the bottom of the binding pocket, packing favorably against Trp386 (W386). […] At the top of the ligand binding pocket, near Val91 and Trp100, the embodiment predicts that the pimozide and benperidol will place identical functional groups that differ somewhat from those of spiperone and mespiperone.
# D2 dopamine receptor (D2R) S193 mutants (Val, Leu, Ala) (Homo sapiens, UniProt P14416, S193A), sequence (P14416 whole entry S193A): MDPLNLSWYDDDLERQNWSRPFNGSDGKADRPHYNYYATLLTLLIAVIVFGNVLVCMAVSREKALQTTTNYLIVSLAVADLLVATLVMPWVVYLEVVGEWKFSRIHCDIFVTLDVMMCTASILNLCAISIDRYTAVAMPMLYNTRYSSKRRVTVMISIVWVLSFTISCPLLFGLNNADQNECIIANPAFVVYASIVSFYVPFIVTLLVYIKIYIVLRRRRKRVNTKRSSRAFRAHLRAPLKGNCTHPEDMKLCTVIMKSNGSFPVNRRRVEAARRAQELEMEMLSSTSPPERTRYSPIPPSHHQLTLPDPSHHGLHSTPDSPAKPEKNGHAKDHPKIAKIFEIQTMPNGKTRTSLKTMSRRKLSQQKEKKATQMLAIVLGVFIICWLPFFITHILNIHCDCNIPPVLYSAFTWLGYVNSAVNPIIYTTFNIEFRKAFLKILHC
smiles,measurement,setting,value
O=C(CCCN1CCC(n2c(O)nc3ccccc32)CC1)c1ccc(F)cc1 [benperidol],change of affinity on mutation,[1],not observed
same,change of affinity on mutation,[2],increases
same,effect of mutation on ligand,[3],slightly differently from spiperone and mespiperone
